What all share (type): biochemical
The target in test [1] is T1, recombinant PRL-2 (Homo sapiens, UniProt Q12974).
T1 construct: 6xHis (N, cleaved yes); made in house; host or cells: E. coli One Shot BL21 Star
T1 sequence (Q12974 1-167): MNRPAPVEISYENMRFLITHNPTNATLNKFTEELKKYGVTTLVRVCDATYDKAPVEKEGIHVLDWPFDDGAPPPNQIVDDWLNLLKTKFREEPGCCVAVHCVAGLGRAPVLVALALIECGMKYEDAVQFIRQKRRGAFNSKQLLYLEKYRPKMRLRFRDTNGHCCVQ
The test can be described thus: In vitro phosphatase assay (DiFMUP hydrolysis), PRL-2.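 Note: PRL-2 activity read as DiFMUP hydrolysis after 20 min at room temperature with drug, enzyme first pre-reduced at 4 °C for 20 min.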

In test [2] the target is T2, recombinant PRL-3 (Homo sapiens, UniProt O75365).
T2 construct: 6xHis (N, cleaved yes); made in house; host or cells: E. coli One Shot BL21 Star
T2 sequence (O75365 whole entry): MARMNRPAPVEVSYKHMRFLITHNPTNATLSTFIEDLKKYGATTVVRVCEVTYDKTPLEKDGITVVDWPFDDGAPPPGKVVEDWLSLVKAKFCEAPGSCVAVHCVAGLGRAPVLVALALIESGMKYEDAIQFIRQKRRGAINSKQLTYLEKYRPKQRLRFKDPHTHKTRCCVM
The test can be described thus: In vitro phosphatase assay (DiFMUP hydrolysis), PRL-3. Note: test concentration or dose not given here.

Test [3] concerns the target T3, recombinant PRL-1 (Homo sapiens, UniProt Q93096).
T3 construct: 6xHis (N, cleaved yes); made in house; host or cells: E. coli One Shot BL21 Star
T3 sequence (Q93096 1-173): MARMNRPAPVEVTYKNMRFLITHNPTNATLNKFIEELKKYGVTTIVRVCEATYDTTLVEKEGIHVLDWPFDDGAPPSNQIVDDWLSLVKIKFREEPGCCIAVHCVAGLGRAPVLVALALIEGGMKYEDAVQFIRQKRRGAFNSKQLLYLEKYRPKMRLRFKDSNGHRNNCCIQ
The test can be described thus: In vitro phosphatase assay (DiFMUP hydrolysis), PRL-1. Note: test concentration or dose not given here.

[4] abbreviates: FDA-approved drug screen, compared to DMSO.

Where a name gives a salt, the structure may show the parent alone. Read-outs that look alike come from different tables or passages of the source.

Take `C[C@@H](O)[C@@H]1NC(=O)[C@H](CCCCN)NC(=O)[C@@H](Cc2c[nH]c3ccccc23)NC(=O)[C@H](Cc2ccccc2)NC(=O)[C@@H](NC(=O)[C@H](N)Cc2ccccc2)CSSC[C@@H](C(=O)N[C@H](CO)[C@@H](C)O)NC1=O` [Octreotide Acetate]: in test [1] (setting [4]), the “% Phosphatase Activity (compared to DMSO) PRL-2” value is recorded as 90%. Moreover, the “% Phosphatase Activity (compared to DMSO) PRL-3” value in test [2] (setting [4]) was 93%. Moreover, in test [3] (setting [4]), the “% Phosphatase Activity (compared to DMSO) PRL-1” value was 99%.

For `CC1COc2c(N3CCN(C)CC3)c(F)cc3c(=O)c(C(=O)O)cn1c23` (stereo not drawn) [Ofloxacin], in test [1] (setting [4]), the “% Phosphatase Activity (compared to DMSO) PRL-2” value is given as 271%. Further, in test [2] (setting [4]), the “% Phosphatase Activity (compared to DMSO) PRL-3” value is 134%. For the same compound, in test [3] (setting [4]), the “% Phosphatase Activity (compared to DMSO) PRL-1” value was determined as 301%.

For `Cc1cc2c(s1)Nc1ccccc1N=C2N1CCN(C)CC1` [Olanzapine], the “% Phosphatase Activity (compared to DMSO) PRL-2” value in test [1] (setting [4]) amounted to 97%. Besides, the “% Phosphatase Activity (compared to DMSO) PRL-3” value in test [2] (setting [4]) came to 80%. For the same compound, in test [3] (setting [4]), the “% Phosphatase Activity (compared to DMSO) PRL-1” value came out at 99%.

On to `O=C(c1cc(Cc2n[nH]c(=O)c3ccccc23)ccc1F)N1CCN(C(=O)C2CC2)CC1` [Olaparib (AZD2281, Ku-0059436)], for which the “% Phosphatase Activity (compared to DMSO) PRL-2” value in test [1] (setting [4]) is recorded as 101%. In test [2] (setting [4]), the “% Phosphatase Activity (compared to DMSO) PRL-3” value is given as 91%. Moreover, the “% Phosphatase Activity (compared to DMSO) PRL-1” value in test [3] (setting [4]) amounted to 88%.

On to `CCCc1nc(C(C)(C)O)c(C(=O)OCc2oc(=O)oc2C)n1Cc1ccc(-c2ccccc2-c2nnn[nH]2)cc1` [Olmesartan Medoxomil], for which the “% Phosphatase Activity (compared to DMSO) PRL-2” value in test [1] (setting [4]) worked out at 93%. Also, the “% Phosphatase Activity (compared to DMSO) PRL-3” value in test [2] (setting [4]) is 76%. Also, the “% Phosphatase Activity (compared to DMSO) PRL-1” value in test [3] (setting [4]) is on record as 97%.

As for `C=CC(=O)Nc1cccc(Oc2nc(Nc3ccc(N4CCN(C)CC4)cc3)nc3ccsc23)c1` [Olmutinib (HM61713, BI 1482694)], the “% Phosphatase Activity (compared to DMSO) PRL-2” value in test [1] (setting [4]) is listed as 87%. The “% Phosphatase Activity (compared to DMSO) PRL-3” value in test [2] (setting [4]) is reported as 94%. Moreover, in test [3] (setting [4]), the “% Phosphatase Activity (compared to DMSO) PRL-1” value was found to be 90%.

On to `CN(C)CC/C=C1/c2ccccc2COc2ccc(CC(=O)O)cc21` [Olopatadine HCl], for which the “% Phosphatase Activity (compared to DMSO) PRL-2” value in test [1] (setting [4]) is given as 121%. Besides, in test [2] (setting [4]), the “% Phosphatase Activity (compared to DMSO) PRL-3” value came to 74%. Also, the “% Phosphatase Activity (compared to DMSO) PRL-1” value in test [3] (setting [4]) stood at 116%.

Regarding `O=C(O)c1cc(/N=N/c2ccc(O)c(C(=O)O)c2)ccc1O` [Olsalazine Sodium], the “% Phosphatase Activity (compared to DMSO) PRL-2” value in test [1] (setting [4]) came out at 53%. Besides, the “% Phosphatase Activity (compared to DMSO) PRL-3” value in test [2] (setting [4]) came out at 61%. In addition, the “% Phosphatase Activity (compared to DMSO) PRL-1” value in test [3] (setting [4]) was determined as 59%.

In the case of `Cc1c(-c2cnccn2)ssc1=S` [Oltipraz], the “% Phosphatase Activity (compared to DMSO) PRL-2” value in test [1] was found to be 73%. Further, the “% Phosphatase Activity (compared to DMSO) PRL-3” value in test [2] was 76%. For the same compound, the “% Phosphatase Activity (compared to DMSO) PRL-1” value in test [3] stood at 90%.

With `COc1ccc2[nH]c([S+]([O-])Cc3ncc(C)c(OC)c3C)nc2c1` (stereo not drawn) [Omeprazole], in test [1] (setting [4]), the “% Phosphatase Activity (compared to DMSO) PRL-2” value is listed as 96%. Also, the “% Phosphatase Activity (compared to DMSO) PRL-3” value in test [2] (setting [4]) was 54%. Moreover, the “% Phosphatase Activity (compared to DMSO) PRL-1” value in test [3] (setting [4]) is recorded as 89%.

As to `Cc1nccn1CC1CCc2c(c3ccccc3n2C)C1=O.Cl` (stereo not drawn) [Ondansetron HCl], in test [1] (setting [4]), the “% Phosphatase Activity (compared to DMSO) PRL-2” value was 108%. Besides, the “% Phosphatase Activity (compared to DMSO) PRL-3” value in test [2] (setting [4]) turned out to be 96%. Besides, the “% Phosphatase Activity (compared to DMSO) PRL-1” value in test [3] (setting [4]) was determined as 103%.

Regarding `CCCCCCCCCCC[C@@H](C[C@@H]1OC(=O)[C@H]1CCCCCC)OC(=O)[C@H](CC(C)C)NC=O` [Orlistat], the “% Phosphatase Activity (compared to DMSO) PRL-2” value in test [1] (setting [4]) is reported as 91%. Besides, the “% Phosphatase Activity (compared to DMSO) PRL-3” value in test [2] (setting [4]) is listed as 79%. For the same compound, in test [3] (setting [4]), the “% Phosphatase Activity (compared to DMSO) PRL-1” value was 113%.

As to `Cc1ncc([N+](=O)[O-])n1CC(O)CCl` (stereo not drawn) [Ornidazole], the “% Phosphatase Activity (compared to DMSO) PRL-2” value in test [1] (setting [4]) is reported as 102%. In addition, in test [2] (setting [4]), the “% Phosphatase Activity (compared to DMSO) PRL-3” value is reported as 84%. In test [3] (setting [4]), the “% Phosphatase Activity (compared to DMSO) PRL-1” value is listed as 104%.

Regarding `O=C(O)c1cc(=O)[nH]c(=O)[nH]1.O=C(O)c1cc(=O)[nH]c(=O)[nH]1` [Orotic acid (6-Carboxyuracil)], in test [1] (setting [4]), the “% Phosphatase Activity (compared to DMSO) PRL-2” value is 109%. Also, the “% Phosphatase Activity (compared to DMSO) PRL-3” value in test [2] (setting [4]) was 95%. In addition, in test [3] (setting [4]), the “% Phosphatase Activity (compared to DMSO) PRL-1” value was found to be 106%.
